Test results: patent publication US11472766B2, “Lipid nanoparticle composition” (Suzhou Abogen Biosciences Co., Ltd., priority 2020, dated 2022)

Columns and labels:
[1] = Lipid nanoparticle size by dynamic light scattering (Malvern Zetasizer Nano ZS); assay type: physicochemical; conditions: LNP: cationic lipid/DSPC/cholesterol/PEG-lipid 50:10:38.5:1.5, hEPO mRNA; Table 3
How it was run: (§1)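 Ribogreen fluorescence quantifies encapsulated mRNA and backscatter (173°) DLS sizes the particles. These are microfluidically mixed four-component LNPs in DPBS after dialysis.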

[2] = Encapsulation efficiency of lipid nanoparticles (Quant-it Ribogreen RNA quantification assay); assay type: physicochemical; conditions: LNP encapsulating hEPO mRNA; Table 3
How it was run: as §1

[3] = tested on: human erythropoietin (hEPO) mRNA; test: Animal study: hEPO expression after tail vein injection of LNPs encapsulating hEPO mRNA (serum ELISA); assay type: in vivo; conditions: hEPO level, female ICR mice, 0.5 mg/kg, 6 hours post administration, class symbols, Table 3
How it was run: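 Female ICR mice (6-8 weeks) received LNPs carrying hEPO mRNA by tail vein injection at 0.5 mg/kg, with MC3 LNPs dosed the same way as positive control. Blood was drawn at set times (e.g., 6 h) and serum separated. hEPO was quantified by ELISA and reported as μg/ml.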

[4] = Apparent pKa of LNP formulations (TNS fluorescence assay); conditions: LNP cationic lipid/DSPC/cholesterol/DMG-PEG 50/10/38.5/1.5 mol %, Table 3
Method: The apparent pKa of each formulation was determined using an assay based on fluorescence of 2-(p-toluidino)-6-napthalene sulfonic acid (TNS). LNP formulations comprising of cationic lipid/DSPC/cholesterol/DMG-PEG (50/10/38.5/1.5 mol %) in PBS were prepared as described above. TNS was prepared as a 300 uM stock solution in distilled water. LNP formulations were diluted to 0.1 mg/ml total lipid in 3 mL of buffered solutions containing 50 mM sodium citrate, 50 mM sodium phosphate, 50 mM sodium borate, and 30 mM sodium chloride where the pH ranged from 3 to 9. An aliquot of the TNS solution was added to give a final concentration of 0.1 mg/ml and following vortex mixing fluorescence intensity was measured at room temperature in a Molecular Devices Spectramax iD3 spectrometer using excitation and mission wavelengths of 325 nm and 435 nm. A sigmoidal best fit analysis was applied to the fluorescence data and the pKa value was measured as the pH giving rise to half-maximal fluorescent intensity.

SMILES | polydispersity [1] | size nm [1] | Encapsulation Efficiency [2] | Expression at 6 h (μg/ml) [3] | Apparant Pka [4]
CCCCCCCCC(CCCCCC)CC(=O)NCCCCCN(CCCCCNC(=O)CC(CCCCCC)CCCCCCCC)CCN(CCO)C1CCCCC1 (stereo not shown) [Compound 115] | 0.117 | 65.12 nm | 98.2% | A (≥2) | 6.732
CCCCCCCCC(CCCCCC)CC(=O)NCCCCCN(CCCCCNC(=O)CC(CCCCCC)CCCCCCCC)CCN(CCO)C1CCCCCC1 (stereo not shown) [Compound 116] | 0.201 | 79.28 nm | 94.5% | A (≥2) | 6.795
CCCCCCCCC(CCCCCC)CC(=O)NCCCCCN(CCCCCOC(=O)CC(CCCCCC)CCCCCCCC)CCN(CCO)C1CC1 (stereo not shown) [Compound 117] | 0.157 | 76.79 nm | 95.2% | A (≥2) | 6.72
CCCCCCCCC(CCCCCC)CNC(=O)CCCCCN(CCCCCC(=O)NCC(CCCCCC)CCCCCCCC)CCN(CCO)C1CCC1 (stereo not shown) [Compound 118] | 0.057 | 62.72 nm | 98.9% | A (≥2) | 6.523
CCCCCCCCC(CCCCCC)CNC(=O)CCCCCN(CCCCCC(=O)NCC(CCCCCC)CCCCCCCC)CCN(CCO)C1CCCCC1 (stereo not shown) [Compound 120] | 0.1 | 59.78 nm | 97.1% | B (≥1 and <2) | 6.264
CCCCCCCCC(CCCCCC)CNC(=O)NCCCCN(CCCCNC(=O)NCC(CCCCCC)CCCCCCCC)CCN(CCO)C1CCCCC1 (stereo not shown) [Compound 122] | 0.044 | 57.81 nm | 89.4% | A (≥2) | 7.048
CCCCCCCCC(CCCCCC)COC(=O)NCCCCN(CCCCNC(=O)OCC(CCCCCC)CCCCCCCC)CCN(CCO)C1CCCCC1 (stereo not shown) [Compound 124] | 0.061 | 64.66 nm | 96.9% | A (≥2) | 6.984
CCCCCCCCC(CCCCCC)COC(=O)NCCCCN(CCCCNC(=O)OCC(CCCCCC)CCCCCCCC)CCN(CCO)C1CCCC1 (stereo not shown) [Compound 125] | 0.116 | 72.36 nm | 95.6% | A (≥2) | 6.833
CCCCCCCCC(CCCCCC)CNC(=O)CCCCCN(CCCCCC(=O)OCC(CCCCCC)CCCCCCCC)CCN(CCC)C1CCC(O)CC1 (stereo not shown) [Compound 133] | 0.083 | 109.90 nm | 90.6% | A (≥2) | 6.668
CCCCCCCCC(CCCCCC)CNC(=O)CCCCCN(CCCCCC(=O)NCC(CCCCCC)CCCCCCCC)CCN(CCO)C1CC(O)C1 (stereo not shown) [Compound 134] | 0.033 | 105.50 nm | 87.9% | A (≥2) | 6.442
CCCCCCCCC(CCCCCC)CNC(=O)CCCCCN(CCCCCC(=O)NCC(CCCCCC)CCCCCCCC)CCN(CCC)C1CCC(O)CC1 (stereo not shown) [Compound 135] | 0.035 | 104.1 nm | 85.6% | C (≥0.1 and <1) | 6.652
CCCCCCCCC(CCCCCCCC)CNC(=O)CCCCCN(CCCCCC(=O)NCC(CCCCCCCC)CCCCCCCC)CCN(CCO)C1CCCCC1 [Compound 137] | 0.029 | 60.84 nm | 95.29% | A (≥2) | 6.751
CCCCCCCCC(CCCCCCCC)CNC(=O)CCCCCN(CCCCCC(=O)OCC(CCCCCCCC)CCCCCCCC)CCN(CCO)C1CCCCC1 [Compound 138] | 0.013 | 63.52 nm | 94.50% | A (≥2) | 6.688
CCCCCCCCC(CCCCCCCC)CNC(=O)CCCCCN(CCCCCC(=O)OCC(CCCCCCCC)CCCCCCCC)CCN(CCO)C1CCCCCC1 [Compound 139] | 0.052 | 67.31 nm | 92.64% | A (≥2) | 6.518
CCCCCCC(CCCCCC)CNC(=O)CCCCCN(CCCCCC(=O)OCC(CCCCCC)CCCCCC)CCN(CCO)C1CCCC1 [Compound 140] | 0.075 | 138.7 nm | 83.4% | A (≥2) | 6.981
CCCCCCC(CCCCCC)CNC(=O)CCCCCN(CCCCCC(=O)OCC(CCCCCC)CCCCCC)CCN(CCO)C1CCCCCC1 [Compound 141] | 0.036 | 71.93 nm | 89.1% | A (≥2) | 6.766
CCCCCCC(CCCCCC)CC(=O)NCCCCCN(CCCCCOC(=O)CC(CCCCCC)CCCCCC)CCN(CCO)C1CCCCCC1 [Compound 142] | 0.027 | 81.13 nm | 85.3% | A (≥2) | 6.678
CCCCCCCCC(CCCCCCCC)CC(=O)NCCCCCN(CCCCCOC(=O)CC(CCCCCCCC)CCCCCCCC)CCN(CCO)C1CCCC1 [Compound 143] | 0.032 | 58.61 nm | 93.2% | A (≥2) | 6.836
CCCCCCCCC(CCCCCCCC)CC(=O)NCCCCCN(CCCCCNC(=O)CC(CCCCCCCC)CCCCCCCC)CCN(CCO)C1CCCCCC1 [Compound 144] | 0.035 | 64.08 nm | 95.0% | A (≥2) | 6.794
CCCCCCCCC(CCCCCCCC)CC(=O)NCCCCCN(CCCCCOC(=O)CC(CCCCCCCC)CCCCCCCC)CCN(CCO)C1CCCCCC1 [Compound 145] | 0.04 | 61.5 nm | 93.1% | A (≥2) | 6.634
CCCCCCCCCCCOC(=O)CCCCCN(CCCCCC(=O)NCC(CCCCCCCC)CCCCCCCC)CCN(CCO)C1CCC1 [Compound 146] | 0.052 | 66.27 nm | 94.6% | B (≥1 and <2) | 7.496
CCCCCCCCCCCOC(=O)CCCCCN(CCCCCC(=O)NCC(CCCCCCCC)CCCCCCCC)CCN(CCO)C1CCCC1 [Compound 147] | 0.082 | 69.58 nm | 91.4% | A (≥2) | 7.304
CCCCCCCCCCCOC(=O)CCCCCN(CCCCCC(=O)NCC(CCCCCCCC)CCCCCCCC)CCN(CCO)C1CCCCC1 [Compound 148] | 0.046 | 83.84 nm | 85.6% | A (≥2) | 7.146
